Experimental data published in US9802943B2, “HIV inhibiting bicyclic pyrimidine derivatives” (Janssen Sciences Ireland UC, priority 2004, dated 2017).

Columns and labels:
Assay type in all cases: cell-based
[1] = system: Strain IIIB (wild type HIV-LAI strain); test: cellular antiviral assay, wild type HIV; conditions: for EC50: Human immunodeficiency virus 1, IIIB, read-out: pEC50 IIIB (converted); for pEC50 IIIB: strain IIIB, wild type HIV-LAI
Procedure: (§1) Because of the increasing emergence of drug resistant HIV strains, the present compounds were tested for their potency against clinically isolated HIV strains harboring several mutations. These mutations are associated with resistance to reverse transcriptase inhibitors and result in viruses that show various degrees of phenotypic cross-resistance to the currently commercially available drugs such as for instance AZT and delavirdine.
(§2) The antiviral activity of the compound of the present invention has been evaluated in the presence of wild type HIV and HIV mutants bearing mutations at the reverse transcriptase gene. The activity of the compounds is evaluated using a cellular assay and the residual activity is expressed in pEC50 values. The columns IIIB and A-G in the table list the pEC50 values against various strains IIIB, A-G. • Strain IIIB is wild type HIV-LAI strain • Strain A contains mutation Y181C in HIV reverse transcriptase, • Strain B contains mutation K103N in HIV reverse transcriptase, • Strain C contains mutation L100I in HIV reverse transcriptase, • Strain D contains mutation Y188L in HIV reverse transcriptase, • Strain E contains mutations L100I and K103N in HIV reverse transcriptase, • Strain F contains mutations K103N and Y181C in HIV reverse transcriptase, and • Strain G contains mutations L100I, K103N, Y181C, V179I E138G L214F, V278V/I • and A327A/V in HIV reverse transcriptase.

[2] = system: Strain A (mutation Y181C in HIV reverse transcriptase); test: cellular antiviral assay, HIV mutant strain A; conditions: for EC50: Human immunodeficiency virus 1, read-out: pEC50 A (converted); for pEC50 A: strain A, Y181C
Procedure: as §1, §2

[3] = system: Strain C (mutation L100I in HIV reverse transcriptase); test: cellular antiviral assay, HIV mutant strain C; conditions: for EC50: Human immunodeficiency virus 1, read-out: pEC50 C (converted); for pEC50 C: strain C, L100I
Procedure: as §1, §2

[4] = system: Strain D (mutation Y188L in HIV reverse transcriptase); test: cellular antiviral assay, HIV mutant strain D; conditions: for EC50: Human immunodeficiency virus 1, read-out: pEC50 D (converted); for pEC50 D: strain D, Y188L
Procedure: as §1, §2

[5] = system: Strain E (mutations L100I and K103N in HIV reverse transcriptase); test: cellular antiviral assay, HIV mutant strain E; conditions: for EC50: Human immunodeficiency virus 1, read-out: pEC50 E (converted); for pEC50 E: strain E, L100I and K103N
Procedure: as §1, §2

[6] = system: Strain F (mutations K103N and Y181C in HIV reverse transcriptase); test: cellular antiviral assay, HIV mutant strain F; conditions: for EC50: Human immunodeficiency virus 1, read-out: pEC50 F (converted); for pEC50 F: strain F, K103N and Y181C
Procedure: as §1, §2

[7] = system: Strain G (mutations L100I, K103N, Y181C, V179I E138G L214F, V278V/I and A327A/V in HIV reverse transcriptase); test: cellular antiviral assay, HIV mutant strain G; conditions: for EC50: Human immunodeficiency virus 1, read-out: pEC50 G (converted); for pEC50 G: strain G, L100I, K103N, Y181C, V179I E138G L214F, V278V/I and A327A/V
Procedure: as §1, §2

[8] = system: Strain B (mutation K103N in HIV reverse transcriptase); test: cellular antiviral assay, HIV mutant strain B; conditions: for pEC50 B: strain B, K103N; for EC50: Human immunodeficiency virus 1, read-out: pEC50 B (converted)
Procedure: as §1, §2

SMILES | EC50 [1] | EC50 [2] | EC50 [3] | EC50 [4] | EC50 [5] | EC50 [6] | EC50 [7] | pEC50 IIIB [1] | pEC50 A [2] | pEC50 B [8] | pEC50 C [3] | pEC50 D [4] | pEC50 E [5] | pEC50 F [6] | pEC50 G [7] | EC50 [8]
N#C/C=C/c1cc(F)c(-n2c(N)nc3cnc(Nc4ccc(C#N)cc4)nc32)c(Cl)c1 [Compound 27] | 20 nM | 79.4 nM | 79.4 nM | 501 nM | 631 nM | 200 nM | 6310 nM |  |  |  |  |  |  |  |  | 
Cc1nc(Nc2ccc(C#N)cc2)nc2c1CCN2c1c(F)cc(/C=C\C#N)cc1Cl [Compound 13] |  |  |  |  |  |  |  | 8.4 | 7.1 | 8.4 | 8.4 | 7 | 7.8 | 7 | 5.1 | 
Cc1cc(C=CC#N)ccc1N1CCc2c(C)nc(Nc3ccc(C#N)cc3)nc21 (mixture of isomers) [Compound 1] |  |  |  |  |  |  |  | 8.4 | 7.9 | 9 | 8.9 | 7.7 | 7.8 | 7.1 | 5.5 | 
CCc1nc2cnc(Nc3ccc(C#N)cc3)nc2n1-c1c(C)cc(/C=C/C#N)cc1C [Compound 22] | 3.98 nM | 316 nM | 316 nM | 1580 nM | 3160 nM | 1580 nM |  |  |  |  |  |  |  |  |  | 3.98 nM
Cc1cc(CCC#N)cc(C)c1N1CCc2c(C)nc(Nc3ccc(C#N)cc3)nc21 [Compound 15] |  |  |  |  |  |  |  | 9 | 8.2 | 8.6 |  | 7.3 | 8 | 8 | 5.7 | 
CCc1cc(/C=C/C#N)ccc1N1CCc2c(C)nc(Nc3ccc(C#N)cc3)nc21 [Compound 4] |  |  |  |  |  |  |  | 8.4 | 8.3 | 9 | 9 | 7.9 | 8.1 | 7.6 | 5.1 | 
Cc1nc(Nc2ccc(C#N)cc2)nc2c1CCN2c1c(F)cc(C=CC#N)cc1F (mixture of isomers) [Compound 2] |  |  |  |  |  |  |  | 9.1 | 7.9 | 9.2 | 9.3 | 8.4 | 9.1 | 7.4 | 5.7 | 
N#C/C=C/c1cc(F)c(-n2cnc3cnc(Nc4ccc(C#N)cc4)nc32)c(Cl)c1 [Compound 24] | 0.1 nM | 3.16 nM | 0.2 nM | 12.6 nM | 6.31 nM | 12.6 nM | 2000 nM |  |  |  |  |  |  |  |  | 0.1 nM
Cc1cc(/C=C/C#N)cc(C)c1-n1c(N)nc2cnc(Nc3ccc(C#N)cc3)nc21 [Compound 26] | 2.51 nM | 25.1 nM | 20 nM | 79.4 nM | 126 nM | 63.1 nM | 12600 nM |  |  |  |  |  |  |  |  | 12.6 nM
Cc1nc(Nc2ccc(C#N)cc2)nc2c1CCN2c1ccc(C=CC#N)cc1F (mixture of isomers) [Compound 5] |  |  |  |  |  |  |  | 7.7 | 6.3 | 7.9 | 7.8 | 6.6 | 6.9 |  | <4.6 | 
COc1cc(/C=C/C#N)cc(C)c1N1CCc2c(C)nc(Nc3ccc(C#N)cc3)nc21 [Compound 8] |  |  |  |  |  |  |  | 8.5 | 7.6 | 8.4 | 8.3 | 7.5 | 7.6 | 7.2 | 4.9 | 
Cc1cc(/C=C/C#N)cc(C)c1-n1c(-c2ccccn2)nc2cnc(Nc3ccc(C#N)cc3)nc21 [Compound 25] |  |  |  |  |  |  |  | 8.1 | 7.5 | 7.6 | 7.2 | 7.5 | 5.9 | 7.2 | 5.6 | 
Cc1cc(/C=C/C#N)cc(C)c1-n1nnc2cnc(Nc3ccc(C#N)cc3)nc21 [Compound 29] |  |  |  |  |  |  |  | 9.1 | 7.8 | 8.8 | 8.3 | 7.7 | 7.1 |  | 5.4 | 
